In patent US12344600B2, “c-Myc mRNA translation modulators and uses thereof in the treatment of cancer” (Anima Biotech Inc., priority 2022, dated 2025):

System: c-Myc
Experiment: c-Myc immunofluorescence assay
Format: cell-based, human
Conditions: A549 cells, 24 hours, anti-c-Myc immunofluorescence
Experimental: A549 human non-small cell lung carcinoma cells were treated for 24 hours with increasing compound concentration, cells were fixed and stained with a nuclei stain (DAPI) and anti-c-Myc fluorescent antibody. The c-Myc signal was quantified by image analysis, and data was exported and analyzed using TIBCO Spotfire® (TIBCO Corporation). Dose response curves were generated and fitted with logaristic regression to calculate potency (EC50 values). Potency values are presented in Table 2 for all compounds and are shown for selected compounds (FIG. 3).
A549 cells were grown in 384-wells plates (Perkin Elmer, Cat. 6057300) for 48 hours, treated with compounds and then fixed for 20 min in 4% paraformaldehyde. After that permeabilization was done using 0.1% Triton X-100 in PBS for 20 min. Primary anti-c-Myc antibody (Abcam, ab32072) staining was performed for 90 min at room temperature. Cells then were washed twice with PBS and incubated with secondary antibody (Abcam, ab150075) for 90 min at room temperature. Nuclei were stained with DAPI for 10 min and washed twice with PBS.
Cell images were taken with Operetta (Perkin Elmer, USA), a wide-field fluorescence microscope at 20× magnification. After acquisition, the images were transferred to Columbus software (Perkin-Elmer) for image analysis. In Columbus, cells were identified by their nucleus, using the “Find Nuceli” module and cytoplasm was detected based on the secondary antibody channel. Subsequently, the fluorescent signal was enumerated in the identified cell region. Then data was exported to a data analysis and visualization software, Tibco Spotfire, USA.

| Structure (SMILES) | Myc Efficacy (−LogEC50) |
| --- | --- |
| COc1ccc(-c2noc(N3CCC(C(=O)NCc4cncnc4)CC3)n2)cc1 [Compound 162, 1-(3-(4-methoxyphenyl)-1,2,4-oxadiazol-5-yl)-N-(pyrimidin-5-ylmethyl)piperidine-4-carboxamide] | + (+ >3 and <5) |
| O=C(NCc1cccnc1)C1CCN(c2nc(-c3ccc(Cl)cc3)no2)CC1 [Compound 163, 1-(3-(4-chlorophenyl)-1,2,4-oxadiazol-5-yl)-N-(pyridin-3-ylmethyl)piperidine-4-carboxamide] | + (+ >3 and <5) |
| O=C(C1CCN(c2nc(-c3ccccc3Cl)no2)CC1)N1CCOCC1 [Compound 164, (1-(3-(2-chlorophenyl)-1,2,4-oxadiazol-5-yl)piperidin-4-yl)(morpholino)methanone] | − (− ≤3) |
| O=C(C1CCN(c2nc(-c3cccc(Cl)c3)no2)CC1)N1CCOCC1 [Compound 165, (1-(3-(3-chlorophenyl)-1,2,4-oxadiazol-5-yl)piperidin-4-yl)(morpholino)methanone] | + (+ >3 and <5) |
| O=C(C1CCN(c2nc(-c3ccc(Cl)cc3)no2)CC1)N1CCOCC1 [Compound 166, (1-(3-(4-chlorophenyl)-1,2,4-oxadiazol-5-yl)piperidin-4-yl)(morpholino)methanone] | + (+ >3 and <5) |
| Cc1ccc(CN2CC[C@@H](CNC(=O)C3CCN(c4nc(-c5ccc(Cl)cc5)no4)CC3)C2)cc1 [Compound 167, (S)-1-(3-(4-chlorophenyl)-1,2,4-oxadiazol-5-yl)-N-((1-(4-methylbenzyl)pyrrolidin-3-yl)methyl)piperidine-4-carboxamide] | +++ (+++ ≥6) |
| Cc1ccc(CN2CC[C@H](CNC(=O)C3CCN(c4nc(-c5ccc(Cl)cc5)no4)CC3)C2)cc1 [Compound 168, (R)-1-(3-(4-chlorophenyl)-1,2,4-oxadiazol-5-yl)-N-((1-(4-methylbenzyl)pyrrolidin-3-yl)methyl)piperidine-4-carboxamide] | ++ (++ ≥5 and <6) |
| COc1ccc(-c2n[nH]c(N3CCC(C(=O)NCC4CCN(Cc5ccc(C)cc5)C4)CC3)n2)cc1 (centres unmarked) [Compound 169, 1-(3-(4-methoxyphenyl)-1H-1,2,4-triazol-5-yl)-N-((1-(4-methylbenzyl)pyrrolidin-3-yl)methyl)piperidine-4-carboxamide] | + (+ >3 and <5) |
| Cc1ccc(CN2CCC(CNC(=O)C3CCN(c4nc(-c5ccc(O)cc5)no4)CC3)C2)cc1 (centres unmarked) [Compound 170, 1-(3-(4-hydroxyphenyl)-1,2,4-oxadiazol-5-yl)-N-((1-(4-methylbenzyl)pyrrolidin-3-yl)methyl)piperidine-4-carboxamide] | + (+ >3 and <5) |
| COc1ccc(-c2cccc(N3CCC(C(=O)NCC4CCN(Cc5ccc(C)cc5)C4)CC3)c2)cc1 (centres unmarked) [Compound 171, 1-(4′-methoxy-[1,1′-biphenyl]-3-yl)-N-((1-(4-methylbenzyl)pyrrolidin-3-yl)methyl)piperidine-4-carboxamide] | ++ (++ ≥5 and <6) |
| COc1ccc(-c2noc(C3CCC(C(=O)NCC4CCN(Cc5ccccc5)C4)CC3)n2)cc1 (centres unmarked) [Compound 172, (1s,4s)-N-((1-benzylpyrrolidin-3-yl)methyl)-4-(3-(4-methoxyphenyl)-1,2,4-oxadiazol-5-yl)cyclohexane-1-carboxamide] | ++ (++ ≥5 and <6) |
| COc1ccc(-c2noc([C@H]3CC[C@@H](C(=O)O)CC3)n2)cc1 [Compound 173, (1s,4s)-4-(3-(4-methoxyphenyl)-1,2,4-oxadiazol-5-yl)cyclohexane-1-carboxylic acid] | + (+ >3 and <5) |
| COc1ccc(-c2noc(C3CCC(C(=O)NCC4CCN(Cc5ccccc5)C4)CC3)n2)cc1 (centres unmarked) [Compound 174, (1r,4r)-N-((1-benzylpyrrolidin-3-yl)methyl)-4-(3-(4-methoxyphenyl)-1,2,4-oxadiazol-5-yl)cyclohexane-1-carboxamide] | ++ (++ ≥5 and <6) |
| COc1ccc(-c2noc([C@H]3CC[C@H](C(=O)O)CC3)n2)cc1 [Compound 175, (1r,4r)-4-(3-(4-methoxyphenyl)-1,2,4-oxadiazol-5-yl)cyclohexane-1-carboxylic acid] | + (+ >3 and <5) |
| COc1ccc(-c2noc(C3CCC(C(=O)NCC4CC(=O)N(Cc5ccccc5)C4)CC3)n2)cc1 (centres unmarked) [Compound 176, (1s,4s)-N-((1-benzyl-5-oxopyrrolidin-3-yl)methyl)-4-(3-(4-methoxyphenyl)-1,2,4-oxadiazol-5-yl)cyclohexane-1-carboxamide] | + (+ >3 and <5) |
| COc1ccc(-c2noc(C3CCC(C(=O)NCC4CC(=O)N(Cc5ccccc5)C4)CC3)n2)cc1 (centres unmarked) [Compound 177, (1r,4r)-N-((1-benzyl-5-oxopyrrolidin-3-yl)methyl)-4-(3-(4-methoxyphenyl)-1,2,4-oxadiazol-5-yl)cyclohexane-1-carboxamide] | ++ (++ ≥5 and <6) |
| O=C(NCc1cccnc1)C1CCN(c2nc(-c3ccc(O)cc3)no2)CC1 [Compound 178, 1-(3-(4-hydroxyphenyl)-1,2,4-oxadiazol-5-yl)-N-(pyridin-3-ylmethyl)piperidine-4-carboxamide] | + (+ >3 and <5) |
| COc1ccccc1-c1noc(N2CCC(C(=O)NCc3cccnc3)CC2)n1 [Compound 179, 1-(3-(2-methoxyphenyl)-1,2,4-oxadiazol-5-yl)-N-(pyridin-3-ylmethyl)piperidine-4-carboxamide] | + (+ >3 and <5) |
| COc1cccc(-c2noc(N3CCC(C(=O)NCc4cccnc4)CC3)n2)c1 [Compound 180, 1-(3-(3-methoxyphenyl)-1,2,4-oxadiazol-5-yl)-N-(pyridin-3-ylmethyl)piperidine-4-carboxamide] | + (+ >3 and <5) |
| COc1ccc(-c2cc(N3CCC(C(=O)NCc4cccnc4)CC3)on2)cc1 [Compound 181, 1-(3-(4-methoxyphenyl)isoxazol-5-yl)-N-(pyridin-3-ylmethyl)piperidine-4-carboxamide] | + (+ >3 and <5) |
| O=C(C1CCN(c2nc(-c3ccc(O)cc3)no2)CC1)N1CCOCC1 [Compound 182, (1-(3-(4-hydroxyphenyl)-1,2,4-oxadiazol-5-yl)piperidin-4-yl)(morpholino)methanone] | + (+ >3 and <5) |
| COc1ccc(-c2cc(N3CCC(C(=O)N4CCOCC4)CC3)on2)cc1 [Compound 183, (1-(3-(4-methoxyphenyl)isoxazol-5-yl)piperidin-4-yl)(morpholino)methanone] | + (+ >3 and <5) |
| CC(=O)Nc1ccc(-c2noc(N3CCC(C(=O)NCC4CCN(Cc5ccc(C)cc5)C4)CC3)n2)cc1 (centres unmarked) [Compound 184, 1-(3-(4-acetamidophenyl)-1,2,4-oxadiazol-5-yl)-N-((1-(4-methylbenzyl)pyrrolidin-3-yl)methyl)piperidine-4-carboxamide] | + (+ >3 and <5) |
| COc1ccc(-c2noc(N3CCC(C(=O)NCC4CCN(Cc5ccc(C)cc5)C4)CC3)n2)nc1 (centres unmarked) [Compound 185, 1-(3-(5-methoxypyridin-2-yl)-1,2,4-oxadiazol-5-yl)-N-((1-(4-methylbenzyl)pyrrolidin-3-yl)methyl)piperidine-4-carboxamide] | ++ (++ ≥5 and <6) |
| Cc1ccc(CN2CCC(CNC(=O)C3CCN(c4nc(-c5cccc(C)c5)no4)CC3)C2)cc1 (centres unmarked) [Compound 186, N-((1-(4-methylbenzyl)pyrrolidin-3-yl)methyl)-1-(3-(m-tolyl)-1,2,4-oxadiazol-5-yl)piperidine-4-carboxamide] | ++ (++ ≥5 and <6) |
| COc1cccc(-c2noc(N3CCC(C(=O)NCC4CCN(Cc5ccc(C)cc5)C4)CC3)n2)c1 (centres unmarked) [Compound 187, 1-(3-(3-methoxyphenyl)-1,2,4-oxadiazol-5-yl)-N-((1-(4-methylbenzyl)pyrrolidin-3-yl)methyl)piperidine-4-carboxamide] | ++ (++ ≥5 and <6) |
| Cc1ccc(CN2CCC(CNC(=O)C3CCN(c4nc(-c5ccccc5C)no4)CC3)C2)cc1 (centres unmarked) [Compound 188, N-((1-(4-methylbenzyl)pyrrolidin-3-yl)methyl)-1-(3-(o-tolyl)-1,2,4-oxadiazol-5-yl)piperidine-4-carboxamide] | ++ (++ ≥5 and <6) |
| COc1ccccc1-c1noc(N2CCC(C(=O)NCC3CCN(Cc4ccc(C)cc4)C3)CC2)n1 (centres unmarked) [Compound 189, 1-(3-(2-methoxyphenyl)-1,2,4-oxadiazol-5-yl)-N-((1-(4-methylbenzyl)pyrrolidin-3-yl)methyl)piperidine-4-carboxamide] | + (+ >3 and <5) |
| COc1ccc(-c2noc(N3CCN(C(=O)N4CCC(OC)CC4)CC3)n2)cc1 [Compound 190, (4-(3-(4-methoxyphenyl)-1,2,4-oxadiazol-5-yl)piperazin-1-yl)(4-methoxypiperidin-1-yl)methanone] | + (+ >3 and <5) |
